Counter-ions that a name gives are not always drawn.

Chain of human LOXL2 (Q9Y4K0 26-774): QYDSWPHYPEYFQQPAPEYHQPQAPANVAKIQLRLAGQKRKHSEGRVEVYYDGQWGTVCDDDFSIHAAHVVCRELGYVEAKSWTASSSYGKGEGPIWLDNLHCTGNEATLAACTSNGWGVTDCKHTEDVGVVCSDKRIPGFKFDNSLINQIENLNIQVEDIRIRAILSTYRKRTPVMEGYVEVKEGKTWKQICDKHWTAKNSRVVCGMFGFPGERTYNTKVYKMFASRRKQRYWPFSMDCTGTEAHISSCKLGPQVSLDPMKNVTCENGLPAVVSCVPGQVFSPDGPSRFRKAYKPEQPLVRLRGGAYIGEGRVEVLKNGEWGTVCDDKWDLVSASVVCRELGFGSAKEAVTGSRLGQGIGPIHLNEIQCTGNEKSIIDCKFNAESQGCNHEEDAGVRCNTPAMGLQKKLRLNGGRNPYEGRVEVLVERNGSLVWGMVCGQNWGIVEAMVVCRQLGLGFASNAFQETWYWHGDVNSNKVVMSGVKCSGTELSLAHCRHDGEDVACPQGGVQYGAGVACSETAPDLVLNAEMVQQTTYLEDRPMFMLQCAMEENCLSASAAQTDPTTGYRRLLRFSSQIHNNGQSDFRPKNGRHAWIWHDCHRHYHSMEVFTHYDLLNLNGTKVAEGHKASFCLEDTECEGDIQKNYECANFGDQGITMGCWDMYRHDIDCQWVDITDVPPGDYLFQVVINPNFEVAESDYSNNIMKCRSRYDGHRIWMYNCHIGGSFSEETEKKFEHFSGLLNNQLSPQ

This experiment concerns the target human LOXL2 (Homo sapiens (Human), UniProt Q9Y4K0). As to the kind of experiment: Human LOXL2 amine oxidase activity assay (Amplex Red). The format is biochemical. The note with it: concentrated conditioned media from CHO cells stably expressing human LOXL2; 2 h at 37° C. with compound; DAP substrate. On the procedure:
Example B-1: Human LOXL2 Amine Oxidase Activity Assay
LOXL2 amine oxidase activity is evaluated by measuring Amplex Red fluorescence using 10-20× concentrated conditioned media from CHO cells stably expressing human LOXL2. To assay for amine oxidase activity, 10 μL of the concentrated conditioned media is incubated with 2 μL of test compound in DMSO and 73 μL Assay Buffer (50 mM Borate Buffer, pH8) for 2 h at 37° C. After the 2 h incubation, 5 ul of 10 mM 1,5-Diaminopentane (DAP) diluted in Assay Buffer and 10 μl of Amplex Red Mix (8.5 μl Assay Buffer+0.5 μl of 10 mM Amplex Red+1 μl of 500 U/ml Horseradish Peroxidase) are added and the plate mixed and immediately placed on the FlexStaion for fluorescence measurements. Fluorescence is read in kinetic mode every 2 min for 1 hour at excitation=544 and emission=590. The amine oxidase activity is calculated from the slope of the linear portion of the curve.
In the case of `NCc1cc(Oc2cccc3c2CCC(=O)N3CC(=O)O)nc(C(F)(F)F)c1` [Compound 1-236, 2-(5-((4-(Aminomethyl)-6-(trifluoromethyl)pyridin-2-yl)oxy)-2-oxo-3,4-dihydroquinolin-1(2H)-yl)acetic acid hydrochloride], the IC50 was greater than 1000 nM. Regarding `NCc1cc(Oc2cccc(C(=O)N[C@H]3CCC[C@H]3O)c2)nc(C(F)(F)F)c1` [Compound 1-210, 3-((4-(Aminomethyl)-6-(trifluoromethyl)pyridin-2-yl)oxy)-N-((1S,2R)-2-hydroxycyclopentyl)benzamide hydrochloride], the half-inhibitory concentration (IC50) is less than 300 nM. For the molecule `C#C[C@H](CC(=O)OC)NC(=O)c1cccc(Oc2cc(CN)cc(C(F)(F)F)n2)c1` [Compound 1-220, Methyl (S)-3-(3-((4-(aminomethyl)-6-(trifluoromethyl)pyridin-2-yl)oxy)benzamido)pent-4-ynoate], the IC50 is less than 300 nM.

In the case of `C#Cc1cccc(NC(=O)c2cccc(Oc3cc(CN)cc(C(F)(F)F)n3)c2)c1` [Compound 1-247, 3-((4-(Aminomethyl)-6-(trifluoromethyl)pyridin-2-yl)oxy)-N-(3-ethynylphenyl)benzamide hydrochloride], the IC50 was less than 300 nM. For `NCc1cc(-c2cccnc2)nc(C(F)(F)F)c1` [Compound 1-1, (6-(Trifluoromethyl)-[2,3′-bipyridin]-4-yl)methanamine trifluoroacetate], the IC50 is less than 300 nM. As for `NCc1cc(Oc2cccc(C(=O)Nc3ccccc3N)c2)nc(C(F)(F)F)c1` [Compound 1-225, 3-((4-(Aminomethyl)-6-(trifluoromethyl)pyridin-2-yl)oxy)-N-(2-aminophenyl)benzamide hydrochloride], the IC50 was less than 300 nM. Consider `Cc1nnc(C(=O)N2CCC[C@H](Oc3cc(CN)cc(C(F)(F)F)n3)C2)o1` [Compound 1-51, (S)-(3-((4-(Aminomethyl)-6-(trifluoromethyl)pyridin-2-yl)oxy)piperidin-1-yl)(5-methyl-1,3,4-oxadiazol-2-yl)methanone trifluoroacetate], for which the IC50 lay within 300 to 1000 nM.

For `CONC(=O)c1cccc(Oc2cc(CN)cc(C(F)(F)F)n2)c1` [Compound 1-219, 3-((4-(Aminomethyl)-6-(trifluoromethyl)pyridin-2-yl)oxy)-N-methoxybenzamide hydrochloride], the IC50 is less than 300 nM. For `NCc1cc(Oc2cccc(C(=O)N3CC=CC3)c2)nc(C(F)(F)F)c1` [Compound 1-215, (3-((4-(Aminomethyl)-6-(trifluoromethyl)pyridin-2-yl)oxy)phenyl)(2,5-dihydro-1H-pyrrol-1-yl)methanone hydrochloride], the concentration for half-maximal inhibition (IC50) was less than 300 nM. `COc1cc(Oc2cc(CN)cc(C(F)(F)F)n2)cc(C(=O)N2C[C@@H](O)[C@H](F)C2)c1` (racemic) [Compound 1-232, Racemic-trans-(3-((4-(aminomethyl)-6-(trifluoromethyl)pyridin-2-yl)oxy)-5-methoxyphenyl)(3-fluoro-4-hydroxypyrrolidin-1-yl)methanone hydrochloride]: the 50% inhibitory concentration (IC50) lay in the range of 300 to 1000 nM.

Take `NCc1cc(NC(=O)c2cccc(C(=O)O)c2)nc(C(F)(F)F)c1` [Compound 1-239, 3-((4-(Aminomethyl)-6-(trifluoromethyl)pyridin-2-yl)carbamoyl)benzoic acid trifluoroacetate]: the IC50 is less than 300 nM. Turning to `NCc1cc(Oc2cc(C(=O)N3C[C@@H](O)[C@H](F)C3)ccc2O)nc(C(F)(F)F)c1` (racemic) [Compound 1-229, Racemic-trans-(3-((4-(aminomethyl)-6-(trifluoromethyl)pyridin-2-yl)oxy)-4-hydroxyphenyl)(3-fluoro-4-hydroxypyrrolidin-1-yl)methanone hydrochloride], the IC50 was in the range of 300 to 1000 nM. In the case of `NCc1cc(Oc2cccc3c2ccn3CC(=O)N2CCNCC2)nc(C(F)(F)F)c1` [Compound 1-233, 2-(4-((4-(Aminomethyl)-6-(trifluoromethyl)pyridin-2-yl)oxy)-1H-indol-1-yl)-1-(piperazin-1-yl)ethan-1-one dihydrochloride], the IC50 lay in the range of 300 to 1000 nM.

`NCc1cc(Oc2cccc(C(=O)N3CC[C@@H](O)C3)c2)nc(C(F)(F)F)c1` [Compound 1-18, (R)-(3-((4-(Aminomethyl)-6-(trifluoromethyl)pyridin-2-yl)oxy)phenyl)(3-hydroxypyrrolidin-1-yl)methanone hydrochloride]: the half-inhibitory concentration (IC50) is less than 300 nM. Regarding `NCc1cc(Oc2cccc(C(=O)N3CC[C@H](O)C3)c2)nc(C(F)(F)F)c1` [Compound 1-17, (S)-(3-((4-(Aminomethyl)-6-(trifluoromethyl)pyridin-2-yl)oxy)phenyl)(3-hydroxypyrrolidin-1-yl)methanone hydrochloride], the IC50 is less than 300 nM. `NCc1cc(OC[C@H]2CCCN(C(=O)Nc3ccccc3)C2)nc(C(F)(F)F)c1` [Compound 1-45, (S)-3-(((4-(Aminomethyl)-6-(trifluoromethyl)pyridin-2-yl)oxy)methyl)-N-phenylpiperidine-1-carboxamide trifluoroacetate]: the half-inhibitory concentration (IC50) was in the range of 300 to 1000 nM. Turning to `CN(C)[C@@H]1CN(C(=O)c2cccc(Oc3cc(CN)cc(C(F)(F)F)n3)c2)C[C@H]1O` (racemic) [Compound 1-23, Racemic-trans-(3-((4-(aminomethyl)-6-(trifluoromethyl)pyridin-2-yl)oxy)phenyl)(-3-(dimethylamino)-4-hydroxypyrrolidin-1-yl)methanone hydrochloride], the IC50 is less than 300 nM. As to `C#CCCCCNC(=O)c1cccc(Oc2cc(CN)cc(C(F)(F)F)n2)c1` [Compound 1-216, 3-((4-(Aminomethyl)-6-(trifluoromethyl)pyridin-2-yl)oxy)-N-(hex-5-yn-1-yl)benzamide trifluoroacetate], the IC50 is less than 300 nM.

Regarding `NCc1cc(Oc2cccc(C(=O)NCc3cc4ccccc4s3)c2)nc(C(F)(F)F)c1` [Compound 1-10, 3-((4-(Aminomethyl)-6-(trifluoromethyl)pyridin-2-yl)oxy)-N-(benzo[b]thiophen-2-ylmethyl)benzamide hydrochloride], the half-maximal inhibitory concentration (IC50) is less than 300 nM. In the case of `NCc1cc(Oc2cccc(C(=O)N3CC(n4cccn4)C3)c2)nc(C(F)(F)F)c1` [Compound 1-12, (3-(1H-Pyrazol-1-yl)azetidin-1-yl)(3-((4-(aminomethyl)-6-(trifluoromethyl)pyridin-2-yl)oxy)phenyl)methanone trifluoroacetate], the IC50 was less than 300 nM. As for `NCc1cc(O[C@H]2CCCN(C(=O)Nc3ccccc3)C2)nc(C(F)(F)F)c1` [Compound 1-44, (S)-3-((4-(Aminomethyl)-6-(trifluoromethyl)pyridin-2-yl)oxy)-N-phenylpiperidine-1-carboxamide trifluoroacetate], the IC50 is less than 300 nM. In the case of `NCc1cc(Oc2cccc(C(=O)NCCS(N)(=O)=O)c2)nc(C(F)(F)F)c1` [Compound 1-34, 3-((4-(Aminomethyl)-6-(trifluoromethyl)pyridin-2-yl)oxy)-N-(2-sulfamoylethyl)benzamide hydrochloride], the IC50 was less than 300 nM. On to “N′-(4-(Aminomethyl)-6-(trifluoromethyl)pyridin-2-yl)-N^3-phenylisophthalamide trifluoroacetate [Compound 1-240]”, for which the IC50 is less than 300 nM. Take `NCc1cc(Oc2cccc(C(=O)N3CCC[C@H]3C(=O)O)c2)nc(C(F)(F)F)c1` [Compound 1-24, (S)-1-(3-((4-(Aminomethyl)-6-(trifluoromethyl)pyridin-2-yl)oxy)benzoyl)pyrrolidine-2-carboxylic acid hydrochloride]: the IC50 is greater than 1000 nM.

`NCc1cc(O[C@@H]2CCN(C(=O)Nc3ccccc3)C2)nc(C(F)(F)F)c1` [Compound 1-39, (R)-3-((4-(Aminomethyl)-6-(trifluoromethyl)pyridin-2-yl)oxy)-N-phenylpyrrolidine-1-carboxamide trifluoroacetate]: the concentration for half-maximal inhibition (IC50) is less than 300 nM. Take `CC(C)(O)CNC(=O)c1cccc(Oc2cc(CN)cc(C(F)(F)F)n2)c1` [Compound 1-32, 3-((4-(Aminomethyl)-6-(trifluoromethyl)pyridin-2-yl)oxy)-N-(2-hydroxy-2-methylpropyl)benzamide hydrochloride]: the IC50 is less than 300 nM. With `NCc1cc(Sc2cccc(C(=O)Nc3ccccc3)c2)nc(C(F)(F)F)c1` [Compound 1-68, 3-((4-(Aminomethyl)-6-(trifluoromethyl)pyridin-2-yl)thio)-N-phenylbenzamide hydrochloride], the IC50 is less than 300 nM. For the molecule `NCc1cc(Oc2cccc(C(=O)Nc3nnco3)c2)nc(C(F)(F)F)c1` [Compound 1-228, 3-((4-(Aminomethyl)-6-(trifluoromethyl)pyridin-2-yl)oxy)-N-(1,3,4-oxadiazol-2-yl)benzamide hydrochloride], the half-maximal inhibitory concentration (IC50) is less than 300 nM. Turning to `COCC1CN(C(=O)c2cccc(Oc3cc(CN)cc(C(F)(F)F)n3)c2)C1` [Compound 1-206, (3-((4-(Aminomethyl)-6-(trifluoromethyl)pyridin-2-yl)oxy)phenyl)(3-(methoxymethyl)azetidin-1-yl)methanone hydrochloride], the IC50 was less than 300 nM. Take `Cc1cc(=O)n(Cc2cc(CN)cc(C(F)(F)F)n2)c(=O)n1Cc1ccncn1` [Compound 1-243, 3-((4-(Aminomethyl)-6-(trifluoromethyl)pyridin-2-yl)methyl)-6-methyl-1-(pyrimidin-4-ylmethyl)pyrimidine-2,4(1H,3H)-dione hydrochloride]: the IC50 lay in the range of 300 to 1000 nM. Consider `NCc1cc(Oc2cccc(C(=O)N[C@@H]3CCC[C@@H]3O)c2)nc(C(F)(F)F)c1` [Compound 1-209, 3-((4-(Aminomethyl)-6-(trifluoromethyl)pyridin-2-yl)oxy)-N-((1R,2S)-2-hydroxycyclopentyl)benzamide hydrochloride], for which the IC50 is less than 300 nM.

For orientation: IC50 means the concentration that inhibits the measured activity by half.

For the origin of these results see patent US11072585B2 (PharmAkea, Inc., priority 2015, dated 2021).
